Measured values from patent US20250388568A1, “NLRP3 INHIBITORS” (Kodiak Sciences Inc., priority 2022, published 2025).

Key:
[1] = system: IL-1β release in THP-1-ASC-GFP cells after NLRP3 activation; experiment: IC50 determination of IL-1β release inhibition in THP-1-ASC-GFP cells; type: cell-based; conditions: THP1-ASC-GFP; THP-1-ASC-GFP cells, LPS priming 4 h, nigericin; average of at least three experiments; read-out: IL-1β IC50 (nM) THP1 cells
Protocol: Example 78: IC50 Determination of IL-1β Release Inhibition in THP-1-ASC-GFP Cells The compounds were tested for their ability to inhibit the IL-1β release in the THP-1-ASC-GFP cells after NLRP3 activation. THP1-ASC-GFP cells (Invivogen […] thawed following Invivogen's initial culture procedure. […] The growth medium was composed of RPM1640 medium (Gibco 32404-014), 10% heat inactivated (HI) serum (Gibco A3840102), Pen/Strep (Quality Biologics 118-089-721), 10 mM Hepes (Quality Biologics 118-089-721), 2 mM Glutamax (GIBCO 35050-061), 100 μg/mL normocin (Invivogen ant-nr), 100 μg/mL Zeocin (Invivogen ant-zn). The growth medium was freshly prepared once a week and sterile filtered. Assay medium consisted of RPMI 1640 medium, 10 mM Hepes, 2 mM Glutamax and Pen/Strep. To the assay medium, 1 μg/mL LPS (Invivogen tlrl-3pelps) was added. A cell suspension was prepared with assay medium and LPS at 1.25M cells per mL. With an electronic pipet, 80 μl of cell suspension was added to U bottom 96 well polystyrene plates (VWR 10062-902) leaving columns 1 and 2 empty. The plates were placed in the incubator for 4 hours. […] DMSO). An hour prior to the end of LPS incubation, a separate 96 deep well plate, Plate B, was prepared with 400 μL of assay media per well, then 2 μL of the stock DMSO solution from Plate A was added to each corresponding well. Plate B was covered to avoid media evaporation. In a 50 mL tube, a solution of nigericin in assay media at […] concentration was prepared. To a new 96 deep well plate, Plate C, 200 μL of this nigericin containing media was dispensed to each well and […] of the test compounds from Plate A to each corresponding well was added. Plate C was covered to avoid media evaporation. After 4 hours of priming, all the media from the LPS treated THP-1 cells in the initial U bottom plate was removed manually. To this plate of primed cells, 80 μL/well test compounds from Plate B was added in duplicate columns (5 compounds tested per plate). The plate was placed in an incubator for 30 min. […] The plate was placed back in the incubator for 1 hour. At the end of 1 hour, the supernatant from this test plate was transferred to a new 96 well V bottom polypropylene plate which was frozen immediately at -80° C. The plate was transferred to -20° C. the next day and awaiting further determination of cytokine IL-1β level. The release of IL-1β into the cell media was determined by MSD® Multi-Spot Assay System (V-Plex, IL-1B kit, […]-4). Following the manufacture's protocol and using the Alternate Protocol 3, Dilute-In-Plate protocol specifically, the level of IL-1β in the above collected supernatant plate was measured as electrochemiluminescent signals. Using MSD DISCOVERY WORKBENCH® analysis software, the signals were converted to the concentration of IL-1β in each well. The IC50 values of the compounds were calculated using the Graph Pad Prism software based on the […] concentration determined. The detection range of IL-1β using MSD kit was approximately […] (based on various lots of standards purchased from MSD).

[2] = system: IL-1β release in U937 cells after NLRP3 activation; experiment: IC50 determination of IL-1β release inhibition in U937 cells; type: cell-based; conditions: Homo sapiens, U-937; PMA-differentiated U937 cells, LPS priming 5 h, nigericin; average of at least three experiments; read-out: IL-1β IC50 (nM) U937 cells
Procedure, shortened: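 PMA-differentiated U937 cells (90 h) were primed 5 h with 1 μg/mL LPS, pre-incubated 30 min with compound, then stimulated with nigericin for 1 h. Supernatant IL-1β was quantified by MSD electrochemiluminescence. IC50 was derived from IL-1β concentration, with duplicate wells per compound.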

| SMILES | IC50 [1] [nM] | IC50 [2] [nM] |
| --- | --- | --- |
| CN(Cc1coc(S(=O)(=O)NC(=O)Nc2c3c(cc4c2CCC4)CCC3)c1)CC1(O)CCC1 [Example 33, N-((1,2,3,5,6,7-hexahydro-s-indacen-4-yl)carbamoyl)-4-((((1-hydroxycyclobutyl)methyl)(methyl)amino)methyl)furan-2-sulfonamide] | 5 to 50 | 5 to 50 |
| Cc1oc(S(=N)(=O)NC(=O)Nc2c3c(cc4c2CCC4)CCC3)cc1CN(C)CC1(CO)CCOCC1 (stereo not drawn) [Example 10, N-((1,2,3,5,6,7-hexahydro-s-indacen-4-yl)carbamoyl)-4-((((4-(hydroxymethyl)tetrahydro-2H-pyran-4-yl)methyl)(methyl)amino)methyl)-5-methylfuran-2-sulfonimidamide] | < 5 | 5 to 50 |
| Cc1oc(S(=N)(=O)NC(=O)Nc2c3c(cc4c2CCC4)CCC3)cc1CN1CC[C@@H](CO)C1 (stereo partly drawn) [Example 5, N-((1,2,3,5,6,7-hexahydro-s-indacen-4-yl)carbamoyl)-4-(((R)-3-(hydroxymethyl)pyrrolidin-1-yl)methyl)-5-methylfuran-2-sulfonimidamide] | < 5 | < 5 |
| CC(O)c1cc(S(=O)(=O)NC(=O)Nc2c3c(c(F)c4c2CCC4)CCC3)oc1CN1CCNCC1 (stereo not drawn) [Example 72, N-((8-fluoro-1,2,3,5,6,7-hexahydro-s-indacen-4-yl)carbamoyl)-4-(1-hydroxyethyl)-5-(piperazin-1-ylmethyl)furan-2-sulfonamide] | 5 to 50 | 5 to 50 |
| Cc1oc(S(=N)(=O)NC(=O)Nc2c3c(c(F)c4c2CCC4)CCC3)cc1CN1CC(O)C1 (stereo not drawn) [Example 14, N-((8-fluoro-1,2,3,5,6,7-hexahydro-s-indacen-4-yl)carbamoyl)-4-((3-hydroxyazetidin-1-yl)methyl)-5-methylfuran-2-sulfonimidamide] | < 5 | 5 to 50 |
| CNCc1coc([S@](=N)(=O)NC(=O)Nc2c3c(cc4c2CCC4)CCC3)c1 (single isomer, unassigned) [Example 75] | 50 to 500 | 50 to 500 |
| Cc1cc(S(=O)(=O)NC(=O)Nc2c3c(c(F)c4c2CCC4)CCC3)oc1CN(C)CC1(O)CCC1 [Example 50, N-((8-fluoro-1,2,3,5,6,7-hexahydro-s-indacen-4-yl)carbamoyl)-5-((((1-hydroxycyclobutyl)methyl)(methyl)amino)methyl)-4-methylfuran-2-sulfonamide] | 5 to 50 | 5 to 50 |
| Cc1oc(S(=N)(=O)NC(=O)Nc2c3c(cc4c2CCC4)CCC3)cc1CN(C)CC1(O)CCC1 (stereo not drawn) [Example 12, N-((1,2,3,5,6,7-hexahydro-s-indacen-4-yl)carbamoyl)-4-((((1-hydroxycyclobutyl)methyl)(methyl)amino)methyl)-5-methylfuran-2-sulfonimidamide] | < 5 | < 5 |
| Cc1oc(S(=O)(=O)NC(=O)Nc2c3c(c(F)c4c2CCC4)CCC3)cc1CN1C[C@@H](O)[C@H](F)C1 [Example 43, N-((8-fluoro-1,2,3,5,6,7-hexahydro-s-indacen-4-yl)carbamoyl)-4-(((3R,4R)-3-fluoro-4-hydroxypyrrolidin-1-yl)methyl)-5-methylfuran-2-sulfonamide] | < 5 | 5 to 50 |
| Cn1nc(S(=O)(=O)NC(=O)Nc2c3c(c(F)c4c2CCC4)CCC3)cc1CN1CCC[C@H]1CO [Example 62, (S)-N-((8-fluoro-1,2,3,5,6,7-hexahydro-s-indacen-4-yl)carbamoyl)-5-((2-(hydroxymethyl)pyrrolidin-1-yl)methyl)-1-methyl-1H-pyrazole-3-sulfonamide] | 5 to 50 | 5 to 50 |
| Cc1oc([S@@](=N)(=O)NC(=O)Nc2c3c(cc4c2CCC4)CCC3)cc1CNC(C)C (single isomer, unassigned) [Example 26, formic acid] | 50 to 500 | 50 to 500 |
| CC(C)n1nc(S(=N)(=O)NC(=O)Nc2c3c(cc4c2CCC4)CCC3)cc1CN1CC(O)C1 (stereo not drawn) [Example 19, N-((1,2,3,5,6,7-hexahydro-s-indacen-4-yl)carbamoyl)-5-((3-hydroxyazetidin-1-yl)methyl)-1-isopropyl-1H-pyrazole-3-sulfonimidamide] | < 5 | 5 to 50 |
| Cc1oc(S(=O)(=O)NC(=O)Nc2c3c(c(F)c4c2CCC4)CCC3)cc1CNCC1(O)CCC1 [Example 36, N-((8-fluoro-1,2,3,5,6,7-hexahydro-s-indacen-4-yl)carbamoyl)-4-((((1-hydroxycyclobutyl)methyl)amino)methyl)-5-methylfuran-2-sulfonamide] | 5 to 50 | 50 to 500 |
| Cc1cc(S(=O)(=O)NC(=O)Nc2c3c(c(F)c4c2CCC4)CCC3)oc1CN1CC[C@H](O)C1 [Example 51, (S)-N-((8-fluoro-1,2,3,5,6,7-hexahydro-s-indacen-4-yl)carbamoyl)-5-((3-hydroxypyrrolidin-1-yl)methyl)-4-methylfuran-2-sulfonamide] | < 5 | 5 to 50 |
| Cc1oc(S(=O)(=O)NC(=O)Nc2c3c(c(F)c4c2CCC4)CCC3)cc1CN(C)CC1(O)CCCC1 [Example 37, N-((8-fluoro-1,2,3,5,6,7-hexahydro-s-indacen-4-yl)carbamoyl)-4-((((1-hydroxycyclopentyl)methyl)(methyl)amino)methyl)-5-methylfuran-2-sulfonamide] | < 5 | 5 to 50 |
| CC(C)(O)c1cc(S(=O)(=O)NC(=O)Nc2c3c(c(F)c4c2CCC4)CCC3)oc1COC1CNC1 [Example 71, 5-((azetidin-3-yloxy)methyl)-N-((8-fluoro-1,2,3,5,6,7-hexahydro-s-indacen-4-yl)carbamoyl)-4-(2-hydroxypropan-2-yl)furan-2-sulfonamide] | < 5 | 5 to 50 |
| Cc1oc(S(=O)(=O)NC(=O)Nc2c3c(c(F)c4c2CCC4)CCC3)cc1CN(C)CC1(O)CCC1 [Example 35, N-((8-fluoro-1,2,3,5,6,7-hexahydro-s-indacen-4-yl)carbamoyl)-4-((((1-hydroxycyclobutyl)methyl)(methyl)amino)methyl)-5-methylfuran-2-sulfonamide] | < 5 | < 5 |
| Cc1cc(S(=O)(=O)NC(=O)Nc2c3c(c(Cl)c4c2CCC4)CCC3)oc1CN(C)CC1(O)CCC1 [Example 57, N-((8-chloro-1,2,3,5,6,7-hexahydro-s-indacen-4-yl)carbamoyl)-5-((((1-hydroxycyclobutyl)methyl)(methyl)amino)methyl)-4-methylfuran-2-sulfonamide] | 5 to 50 | 5 to 50 |
| Cc1oc(S(=O)(=O)NC(=O)Nc2c3c(c(F)c4c2CCC4)CCC3)cc1CN1CC[C@@H](O)C1 [Example 39, (R)-N-((8-fluoro-1,2,3,5,6,7-hexahydro-s-indacen-4-yl)carbamoyl)-4-((3-hydroxypyrrolidin-1-yl)methyl)-5-methylfuran-2-sulfonamide] | 5 to 50 | 50 to 500 |
| CN(CC1(O)CCC1)C(=O)c1coc(S(=N)(=O)NC(=O)Nc2c3c(cc4c2CCC4)CCC3)c1 (stereo not drawn) [Example 4, 5-(N-((1,2,3,5,6,7-hexahydro-s-indacen-4-yl)carbamoyl)sulfamidimidoyl)-N-((1-hydroxycyclobutyl)methyl)-N-methylfuran-3-carboxamide] | < 5 | < 5 |
| Cc1oc(S(=N)(=O)NC(=O)Nc2c3c(cc4c2CCC4)CCC3)cc1CN1CCC[C@H]1CO (stereo partly drawn) [Example 8, N-((1,2,3,5,6,7-hexahydro-s-indacen-4-yl)carbamoyl)-4-(((S)-2-(hydroxymethyl)pyrrolidin-1-yl)methyl)-5-methylfuran-2-sulfonimidamide] | < 5 | < 5 |
